According to the OPERA property sets (Mansouri et al. 2018):

Point of comparison: CC(C)NC[C@H](O)COc1ccc(OCCOCCc2ccc(F)cc2)cc1, logP 3.7. Against it:
- CC(C)NCC(O)COc1ccc(CCOCC2CC2)cc1 (configuration not stated) — lower, 2.81
- CC(=O)Nc1ccc(OCC(O)CNC(C)C)c(C(C)=O)c1 (configuration not stated) — lower, 0.94
- C#CCOc1ccccc1OCC(O)CNC(C)(C)C (configuration not stated) — lower, 2.32
- Cc1ccccc1OCC(O)CNCC(O)COc1ccccc1C (configuration not stated) — within 0.2 log units, 3.67
- CC(C)NCC(O)COc1ccc(COCCOC(C)C)cc1 (configuration not stated) — lower, 1.87
- CNC(=O)COc1ccccc1OCC(O)CNC(C)(C)C (configuration not stated) — lower, 1.36
- Cc1cc2c(OCC(O)CNC(C)C)cccc2[nH]1 (configuration not stated) — lower, 2.3
- CC(=O)Nc1ccc(OCC(O)CNCC(O)COc2ccccc2)cc1 (configuration not stated) — lower, 1.39
- CC(C)NCC(O)COc1ccccc1C1CC1 (configuration not stated) — lower, 3.07
- CC(=O)c1cc2cccc(OCC(O)CNC(C)C)c2o1 (configuration not stated) — lower, 2.02
- COc1ccccc1OCC(O)CNC(C)C (configuration not stated) — lower, 1.69
